Results: patent US12582132B2, “Germination/sprouting and fruit ripening regulators” (The United States of America, as represented by the …, priority 2021, dated 2026)
“Also recorded” adds a separate entry of the source.

How the values were obtained:
Format in all cases: in vivo
strawberry fruit = assay: CAD analogs: ability to hasten strawberry fruit ripening; conditions: 50 μM in 0.1% TRITON-X 100, applied at the same timing as CAD; compared with CAD
Description: Chemicals with similarity to CAD were tested for their ability to hasten fruit ripening.
To the inventors' knowledge, no chemical closely related to CAD is currently commercially available. A few analogs with 88-90% similarity to CAD were found in the ChemBridge database used in Example 1.
This compound has 90% similarity to CAD.

[1] = test system: Strawberry fruit (Fragaria x ananassa CV. Albion); assay: Treatment of strawberry fruit by dipping: fruit ripening; conditions: for strawberry fruit ripening compared to mock-treated strawberries: 10 μM CAD or 1 mM ABA in 0.1% TRITON X-100, dipped 20 seconds eight days after pollination; for strawberry appearance (colour), FIG. 2A: 7 DAT; for strawberry appearance (colour), FIG. 2A / strawberry appearance (colour), FIG. 2B / strawberry appearance (colour), FIG. 2C / strawberry appearance (colour), FIG. 2D / strawberry appearance (colour), FIG. 2E / strawberry appearance (colour), FIG. 2F: 8 day old fruit, 10 μM CAD or 1 mM ABA in 0.1% TRITON-X100; for strawberry appearance (colour), FIG. 2B: 8 DAT; for strawberry appearance (colour), FIG. 2C: 9 DAT; for strawberry appearance (colour), FIG. 2D: 10 DAT; for strawberry appearance (colour), FIG. 2E: 11 DAT; for strawberry appearance (colour), FIG. 2F: 12 DAT
Description: Strawberry plants (Fragaria x ananassa CV. Albion) were grown in a greenhouse at 28° C. and 14-hour light/10-hour dark conditions. […] Fruits were allowed to continue growing on the plants. FIG. 1 depicts images of strawberry fruit development under standard conditions.
FIG. 2A to FIG. 2F depict images of strawberries treated with either 10 μM CAD in 0.1% TRITON X-100 surfactant; 1 mM ABA in 0.1% TRITON X-100 surfactant; or buffer (0.1% TRITON X-100 surfactant) without chemical (mock-treated). […] The CAD dosage was lower than that of ABA (10 μM vs. 1 mM), and CAD stimulated fruit ripening faster than did ABA. […] In contrast, ABA-treated fruit started to turn red 9 DAT, and reached full red 11 DAT.

[2] = test system: Cherry tomato fruits at mature green stage; assay: Treatment of cherry tomatoes by injection: fruit ripening; conditions: for cherry tomato appearance (colour), FIG. 3B / FIG. 3D: 6 DAT, injected with 10 μM CAD or 200 μM ABA in 0.1% TRITON-X100; for cherry tomato ripening stage: six days after treatment, injected with 50 μM CAD or 200 μM ABA in 0.1% TRITON X-100
Description: Cherry tomato fruits at mature green stage were purchased from Butler's Orchard (Germantown, Maryland, USA). Each fruit was injected with either 50 μM CAD in 0.1% TRITON X-100 surfactant; 200 μM ABA in 0.1% TRITON X-100 surfactant; or buffer alone (0.1% TRITON X-100 surfactant). […] FIG. 3A and FIG. 3B show images of cherry tomatoes injected with 10 μM CAD. FIG. 3C and FIG. 3D show images of cherry tomatoes injected with 200 μM ABA. FIG. 3E and FIG. 3F show images of cherry tomatoes injected with buffer alone. FIG. 3G and FIG. 3H show images of untreated tomatoes. FIG. 3A; FIG. 3C; FIG. 3E; and FIG. 3G show images taken the day of treatment. FIG. 3B; FIG. 3D; […]; and FIG. 3H show images taken 6 DAT.

[3] = test system: strawberries on the plant; assay: Effect of CAD injection on strawberry fruit ripening; conditions: for strawberry appearance (colour), FIG. 4A: 8 DAT; for strawberry appearance (colour), FIG. 4A / strawberry appearance (colour), FIG. 4B / strawberry appearance (colour), FIG. 4C / strawberry appearance (colour), FIG. 4D / strawberry appearance (colour), FIG. 4E / strawberry appearance (colour), FIG. 4F: 7 day old fruit, 10 μM CAD or 200 μM ABA in 0.1% TRITON-X100, injected; for strawberry appearance (colour), FIG. 4B: 9 DAT; for strawberry appearance (colour), FIG. 4C: 10 DAT; for strawberry appearance (colour), FIG. 4D: 11 DAT; for strawberry appearance (colour), FIG. 4E: 12 DAT; for strawberry appearance (colour), FIG. 4F: 13 DAT
Description: While still on the plant, strawberries were injected with either 10 μM CAD in 0.1% TRITON-X 100 surfactant; 200 μM ABA in 0.1% TRITON-X 100 surfactant; or 0.1% TRITON-X 100 surfactant. The strawberries were allowed to remain on the plant, and removed and photographed at 8 DAT, 9 DAT, 10 DAT, 11 DAT, 12 DAT, and 13 DAT. FIG. 4A to FIG. 4F depict images of strawberries treated with either 10 μM CAD in 0.1% TRITON-X 100 surfactant; 200 μM ABA in 0.1% TRITON-X 100 surfactant; or 0.1% TRITON-X 100 surfactant alone (mock); or no treatment.

[4] = test system: Strawberry seeds (Fragaria x ananassa CV. Albion); assay: Chemical library screening for delaying strawberry seed germination; conditions: about 5 μM chemical in 0.1% TRITON X-100; strawberry seeds in 96 well plates, 25° C., vs non-treated or mock-treated seeds
Description: A chemical library containing 10,000 small compounds (˜300 Dalton) was purchased from ChemBridge Co (San Diego, California, USA). Strawberry seeds (Fragaria x ananassa CV. Albion) were purchased from Johnny's Seeds (Fairfield, Maine, USA). Five to six seeds were sterilized with 70% ethanol and added to each well of 96 well ELISA plates containing about 5 μM chemical 0.1% TRITON X-100 surfactant (polyethylene glycol tert-octylphenyl ether). One mM abscisic acid (ABA), a hormone that inhibits seed germination, and gibberellic acid (GA3), a hormone that promotes seed germination, were used as controls. Each experiment was conducted in triplicate. Plates were kept in a growth chamber at 25° C. under dark, and a 14 hour light/10 hour dark cycle was added after seed germination was observed.

[5] = 10 μM CAD or 1 mM ABA in 0.1% TRITON X-100, dipped eight days after pollination, days after treatment

SMILES	effect on strawberry fruit ripening (strawberry fruit)	strawberry fruit ripening compared to mock-treated strawberries [1]	fruit reached full red [1, 5] [DAT]	strawberry appearance (colour), FIG. 2A [1]	strawberry appearance (colour), FIG. 2B [1]	strawberry appearance (colour), FIG. 2C [1]	strawberry appearance (colour), FIG. 2D [1]	strawberry appearance (colour), FIG. 2E [1]	strawberry appearance (colour), FIG. 2F [1]	cherry tomato appearance (colour), FIG. 3B / FIG. 3D [2]	cherry tomato ripening stage [2]	strawberry appearance (colour), FIG. 4A [3]	strawberry appearance (colour), FIG. 4B [3]	strawberry appearance (colour), FIG. 4C [3]	strawberry appearance (colour), FIG. 4D [3]	strawberry appearance (colour), FIG. 4E [3]	strawberry appearance (colour), FIG. 4F [3]	further results
CCc1cccc(C)c1NC(=O)c1ccn(CC)n1 [1-ethyl-N-(2-ethyl-6-methylphenyl)-1H pyrazole-3-carboxamide]	no obvious effect on fruit ripening	–	–	–	–	–	–	–	–	–	–	–	–	–	–	–	–	–
CCn1cc(Br)c(C(=O)Nc2ccccc2C(C)(C)C)n1 [4-bromo-N-(2-tert-butylphenyl)-1-ethyl-1H-pyrazole-3-carboxamide]	a lower effect on fruit ripening than CAD	–	–	–	–	–	–	–	–	–	–	–	–	–	–	–	–	–
CC1=CC(=O)CC(C)(C)[C@@]1(O)/C=C/C(C)=C\C(=O)O [ABA, abscisic acid, reference compound]	–	stimulated strawberry fruit ripening	11	white with a greenish tint	white	with more pink	reddish	mostly red	red allover	red	fully ripen (red stage)	white or greenish white	with some pink	pink/red	reddish	red	red with some white at the top	fruit began/started to turn red (start of ripening) [1, 5]: 9 DAT
CCc1cc(Br)ccc1NC(=O)c1ccn(CC)n1 [CAD, N-(4-bromo-2-ethylphenyl)-1-ethyl-1H-pyrazole-3-carboxamide]	–	stimulated strawberry fruit ripening	9	white have a pink tint	with pink spots	mostly red	red	red allover	red allover	dark red	fully ripen (red stage)	with a pink tint	mostly light red; also recorded: showed some color	red and ripe	red	bright red	red allover	cherry tomato ripening compared to mock-treated or untreated cherry tomatoes ([2]; CAD injected in 0.1% TRITON X-100): hastening of cherry tomato ripening; also recorded: promoted fruit ripening of climacteric tomatoes; delaying seed germination [4]: can delay seed germination; ripened before strawberries injected with 200 μM ABA ([3]; strawberries injected with 10 μM CAD in TRITON-X100 14 days after pollination): at least two
CCn1ccc(C(=O)Nc2ccc(Br)cc2)n1 [N-(4-bromophenyl)-1-ethyl-1H-pyrazole-3-carboxamide]	has an effect on fruit ripening; also recorded: promoted strawberry fruit ripening, although not as effectively as CAD	–	–	–	–	–	–	–	–	–	–	–	–	–	–	–	–	–
